Patent US20160222014A1, “COMPOUNDS FOR REGULATING FAK AND/OR SRC PATHWAYS” (ASANA BIOSCIENCES, LLC, priority 2013, published 2016)

Experiments:
recombinant human FAK1 = target: T1, recombinant human FAK1 (Homo sapiens, UniProt Q05397); test: FAK1 HTRF assay; assay type: biochemical
T1 construct: fused on or other part: N-terminal 6xHis tag
Summary of the method: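 His-tagged human FAK1 (residues 692–end, Sf9-expressed), 10 nM final, with 0.5 μM biotinylated gastrin-precursor Tyr87 peptide and a 10 μM final reagent in pH 7.4 buffer, 45 min at rt. Detection used Eu anti-pTyr antibody plus SA-APC (665/620 nm). Compounds top concentration 10 μM; IC50 from % inhibition.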

Recombinant Src enzyme = target: T2, Recombinant Src enzyme (Homo sapiens, UniProt P12931); test: Src HTRF assay; assay type: biochemical
T2 construct: purchased Millipore 14-326; host or cells: Sf21 insect cells
T2 sequence (P12931 whole entry): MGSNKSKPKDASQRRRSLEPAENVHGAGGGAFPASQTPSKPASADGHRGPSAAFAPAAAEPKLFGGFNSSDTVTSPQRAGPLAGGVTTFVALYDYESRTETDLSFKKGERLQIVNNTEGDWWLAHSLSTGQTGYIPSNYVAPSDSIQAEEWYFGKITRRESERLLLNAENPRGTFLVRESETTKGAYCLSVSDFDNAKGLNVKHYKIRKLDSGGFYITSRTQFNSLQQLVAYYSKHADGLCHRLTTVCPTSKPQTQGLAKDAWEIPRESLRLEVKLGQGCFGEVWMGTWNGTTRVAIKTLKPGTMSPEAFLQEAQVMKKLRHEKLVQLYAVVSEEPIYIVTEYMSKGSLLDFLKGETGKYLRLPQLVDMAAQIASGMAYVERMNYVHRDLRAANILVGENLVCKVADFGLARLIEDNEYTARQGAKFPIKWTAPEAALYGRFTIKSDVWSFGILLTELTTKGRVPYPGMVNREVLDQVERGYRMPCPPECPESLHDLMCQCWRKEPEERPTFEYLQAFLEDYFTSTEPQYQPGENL
Summary of the method: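 Sf21-expressed recombinant Src at 5 nM final with biotinylated N-terminally tagged Tyk2 peptide substrate at 0.5 μM final; a component freshly made in enzyme assay buffer pH7.4 was used at 10 μM final. Buffer, supplements, compound handling and procedure as in the FAK HTRF assay; dasatinib included.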

[1] = target: T3, FAK phosphorylated at Y397 in HEK-FAK cell line overexpressing human FL FAK protein (Homo sapiens, UniProt Q05397); test: Cell based assay, Phospho-FAK ELISA; details: HEK stb; read-out: pFAK EC50 (μM) HEK stb
T3 construct: expressed in transfected cells
T3 sequence (Q05397 whole entry): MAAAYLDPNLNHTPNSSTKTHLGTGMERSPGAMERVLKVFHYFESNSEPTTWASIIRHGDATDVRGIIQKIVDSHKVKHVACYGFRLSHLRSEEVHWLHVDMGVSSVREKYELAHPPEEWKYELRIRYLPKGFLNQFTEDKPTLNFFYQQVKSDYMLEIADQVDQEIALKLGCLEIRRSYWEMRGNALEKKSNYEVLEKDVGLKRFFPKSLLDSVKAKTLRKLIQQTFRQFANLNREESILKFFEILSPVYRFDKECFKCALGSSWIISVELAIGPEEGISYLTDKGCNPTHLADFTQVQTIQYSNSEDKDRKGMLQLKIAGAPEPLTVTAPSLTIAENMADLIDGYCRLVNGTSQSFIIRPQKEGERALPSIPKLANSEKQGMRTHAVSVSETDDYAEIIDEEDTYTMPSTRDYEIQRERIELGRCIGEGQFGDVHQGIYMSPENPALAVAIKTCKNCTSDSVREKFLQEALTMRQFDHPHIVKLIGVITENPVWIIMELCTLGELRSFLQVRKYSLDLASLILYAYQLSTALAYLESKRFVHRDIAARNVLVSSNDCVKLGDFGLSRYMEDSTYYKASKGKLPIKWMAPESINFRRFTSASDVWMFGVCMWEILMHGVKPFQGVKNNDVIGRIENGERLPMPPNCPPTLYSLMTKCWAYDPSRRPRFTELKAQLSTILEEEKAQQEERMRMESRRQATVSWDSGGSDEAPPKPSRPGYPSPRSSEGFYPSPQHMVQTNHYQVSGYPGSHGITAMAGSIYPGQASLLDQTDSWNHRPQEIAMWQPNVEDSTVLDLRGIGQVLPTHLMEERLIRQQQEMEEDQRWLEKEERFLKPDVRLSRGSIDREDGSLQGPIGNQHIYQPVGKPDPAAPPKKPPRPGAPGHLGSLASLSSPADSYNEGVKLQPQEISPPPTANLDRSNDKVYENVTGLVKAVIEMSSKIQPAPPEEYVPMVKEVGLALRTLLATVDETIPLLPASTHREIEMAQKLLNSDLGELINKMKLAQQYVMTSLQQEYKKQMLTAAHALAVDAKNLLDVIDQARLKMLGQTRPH
Description: D. Cell Based Assay-Phospho-FAK ELISA
The DuoSet IC ELISA (R&D systems—Cat no. DYC4528-5) provided the basic components required for the development of sandwich ELISAs to measure Focal Adhesion Kinase 1 (FAK) phosphorylated at Y397 in cell lysates. An immobilized capture antibody specific for FAK, also known as PTK2, binds both phosphorylated and unphosphorylated protein. After washing away unbound material, a biotinylated detection antibody specific for FAK phosphorylated at Y397 was used to detect only phosphorylated protein, utilizing a standard Streptavidin-HRP format. The cell line used for the assay was a stable HEK-FAK cell line overexpressing human FL FAK protein, which was generated as follows.
HEK293 cells (ATCC® CRL-1573™, 10801 University Boulevard, Manassas, Va. 20110 USA) were seeded in four 100 mm petri dishes at a seeding density of 1.5×10^6 cells per plate and incubated overnight at 37° C. in a 5% CO2 incubator. The transfection mix was prepared as follows. (A) 10 μg DNA (pCDNA4 V5/HisA vector containing Zeocin as mammalian selection marker, procured from Invitrogen) with the full length human FAK gene represented by the nucleotide sequence provided in NCBI Reference Sequence: NM_153831.3, SEQ ID NO: 1:
was added to 1.5 mL Opti-MEM® (reduced serum media is a modification of Eagle's Minimum Essential Media, buffered with HEPES and sodium bicarbonate and supplemented with hypoxanthine, thymidine, sodium pyruvate, L-glutamine, trace elements and growth factors commercially available from Invitrogen) and incubated at room temperature for 5 minutes. (B) 30 μL Lipofectamine™ Transfection reagent (Life Technologies) was added to 1.5 mL Opti-MEM® and incubated at room temperature for 5 minutes. Following this, (a) and (b) were mixed and incubated at room temperature for 20 minutes. Media was removed from cells and washed with 1× phosphate buffered saline (PBS) and the transfection mix prepared above was mixed with 3 mL of Opti-MEM®, added to the cells and incubated at 37° C. Four hours later, 6 mL of 20% Dulbecco's Modified Eagle Medium (DMEM) was added to the plates and incubated at 37° C. in a 5% CO2 incubator. Approximately 72 hours after transfection, cells were subcultured at various dilutions with fresh medium containing 0.8 mg/mL Zeocin™ (Life Technologies). Cells were replenished with selective medium every 3-4 days until cell foci were identified in the FAK transfected cells and most of the cells died in the control plates. Cells from these foci were grown in the presence of selective media and the expression of FAK was confirmed by Western Blotting. Over expression of FAK in the stably-transfected cells was quantified in the cell-based ELISA assay described below by determining the signal window, with a signal window of 2 or above considered to be robust). The HEK-FAK stable cell line thus was maintained in 0.8 mg/mL Zeocin™ (Life Technologies) and used in cell-based ELISA to assess autophosphorylation of FAK.
(i) Materials • 1. Phospho-FAK (Y397)-Capture Antibody • 2. Phospho-FAK (Y397)-Detection Antibody • 3. Streptavidin-HRP • 4. Cells used for the assay-HEK over expressing human FL FAK protein
(ii) Solutions • PBS—137 mM NaCl, 2.7 mM KCl, 8.1 mM Na2HPO4, 1.5 mM KH2PO4, pH 7.2-7.4, 0.2 μm filtered. • Wash Buffer—0.05% Tween20™ in PBS, pH 7.2-7.4 • Block Buffer—1% BSA, 0.05% NaN3, in PBS, pH 7.2-7.4. • IC Diluent #1-1% BSA in PBS, pH 7.2-7.4, 0.2 μm filtered. • IC Diluent #8-1 mM EDTA, 0.5% Triton™ X-100, 5 mM NaF in PBS, pH 7.2-7.4. IC Diluent #8 was also the base buffer for IC Diluent #3, IC Diluent #7, and Lysis. • Buffer #6. […]

AURKB (Aurora B) enzyme = target: T4, AURKB (Aurora B) enzyme (Homo sapiens, UniProt Q96GD4); test: Aurora B HTRF assay; assay type: biochemical; details: read-out: AuroraB IC50
T4 construct: purchased Invitrogen PVR 130
T4 sequence (Q96GD4 whole entry): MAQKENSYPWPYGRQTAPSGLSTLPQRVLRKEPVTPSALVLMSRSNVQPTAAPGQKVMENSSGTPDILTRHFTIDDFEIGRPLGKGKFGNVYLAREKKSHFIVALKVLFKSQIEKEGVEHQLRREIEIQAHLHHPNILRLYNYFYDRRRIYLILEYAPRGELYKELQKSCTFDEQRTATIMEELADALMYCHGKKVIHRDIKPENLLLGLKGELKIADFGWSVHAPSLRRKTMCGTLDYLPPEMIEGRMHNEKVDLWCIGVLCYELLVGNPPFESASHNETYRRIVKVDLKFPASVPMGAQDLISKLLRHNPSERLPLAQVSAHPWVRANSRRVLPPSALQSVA
Summary of the method: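 HTRF kinase assay with 5 nM Aurora B and 50 nM ULight-PLK (Ser137) peptide, with a reagent at 30 μM final; 1 h at rt. Reaction stopped with EDTA, and phospho-peptide detected with 2 nM Eu-anti-P-PLK(Ser137) antibody after 1 h at rt, read as HTRF.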

T1 sequence (Q05397 422-680 limits assumed): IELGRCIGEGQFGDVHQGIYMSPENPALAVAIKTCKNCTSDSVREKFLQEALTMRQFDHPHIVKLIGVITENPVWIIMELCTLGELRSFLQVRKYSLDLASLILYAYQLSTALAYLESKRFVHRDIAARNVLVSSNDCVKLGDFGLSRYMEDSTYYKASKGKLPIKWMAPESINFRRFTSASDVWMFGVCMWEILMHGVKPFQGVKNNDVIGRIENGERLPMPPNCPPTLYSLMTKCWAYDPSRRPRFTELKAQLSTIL

Structure (SMILES) | IC50 (recombinant human FAK1) [nM] | IC50 (Recombinant Src enzyme) [nM] | EC50 [1] [µM] | IC50 (AURKB (Aurora B) enzyme) [nM]
CN(c1ncccc1Cn1ccc2cnc(Nc3ccc4[nH]cc(C5=CCNCC5)c4c3)nc21)S(C)(=O)=O [Example 152] | < 20 | > 1000 | > 1 | –
COc1cc(Nc2ncc3ccn(S(=O)(=O)c4cccc5cccnc45)c3n2)ccc1N1CCNCC1 [Example 198] | < 20 | – | < 0.02 | < 20
CN(c1ncccc1Cn1ccc2cnc(Nc3ccc4c(c3)NCCO4)nc21)S(C)(=O)=O [Example 215] | < 20 | < 20 | > 1 | –
Cc1cc(Nc2ncc3ccn(S(=O)(=O)c4cccs4)c3n2)ccc1N1CCNCC1 [Example 229] | – | < 20 | > 1 | –
O=S(=O)(c1ccccc1Cl)n1ccc2cnc(Nc3ccc(N4CCNCC4)cc3)nc21 [Example 232] | – | < 20 | > 1 | < 20
C[C@H]1CN(c2ccc(Nc3ncc4ccn(S(=O)(=O)c5ccccc5C#N)c4n3)cc2)CCN1 [Example 242] | – | – | > 1 | < 20
N#Cc1ccccc1S(=O)(=O)n1ccc2cnc(Nc3ccc(N4CCNCC4)c(F)c3)nc21 [Example 245] | – | < 20 | > 1 | < 20
O=S(=O)(c1cccc2cccnc12)n1ccc2cnc(Nc3ccc(CN4CCCC(CO)C4)cc3)nc21 (stereo not shown) [Example 247] | < 20 | – | < 0.02 | < 20
COc1ccccc1S(=O)(=O)n1ncc2cnc(Nc3ccc(N4CCNCC4)cc3)cc21 [Example 342] | – | > 1000 | > 1 | < 20
COc1ccccc1S(=O)(=O)N1CCc2cnc(Nc3ccc(N4CCNCC4)cc3)nc21 [Example 344] | – | – | > 1 | < 20
Cn1cc(Nc2cc3c(cn2)cnn3S(=O)(=O)c2cccc3cccnc23)cn1 [Example 349] | – | > 1000 | > 1 | –
O=S(=O)(c1cccc2cccnc12)n1ccc2cnc(Nc3cnn(C4CCNCC4)c3)nc21 [Example 355] | – | – | > 1 | < 20
COc1cc(N2CCNCC2)ccc1Nc1ncc2ccn(S(=O)(=O)c3cccc4ccc(C)nc34)c2n1 [Example 365] | – | > 1000 | > 1 | –
Cc1ccc2cccc(S(=O)(=O)n3ccc4cnc(Nc5ccc(N6CCNCC6)cc5)cc43)c2n1 [Example 369] | – | > 1000 | > 1 | < 20
CN(c1ncccc1Cn1ccc2cnc(Nc3ccc(N4CC5CC4CN5)cc3)cc21)S(C)(=O)=O (stereo not shown) [Example 371] | – | > 1000 | > 1 | –
COc1cc(N2CCN(CCO)CC2)ccc1Nc1cc2c(ccn2S(=O)(=O)c2cccc3cccnc23)cn1 [Example 386] | < 20 | > 1000 | < 0.02 | –
COc1cc(N2CCN(CCO)CC2)ccc1Nc1cc2c(cn1)cnn2S(=O)(=O)c1cccc2cccnc12 [Example 387] | < 20 | > 1000 | < 0.02 | –
COc1cc(Nc2ncc3ccn(S(=O)(=O)c4cccc5cccnc45)c3n2)cc(OC)c1OC [Example 392] | – | – | > 1 | < 20
CN(c1ncccc1Cn1ccc2cnc(Nc3ccc(N4CCOCC4)cc3)cc21)S(C)(=O)=O [Example 397] | – | > 1000 | > 1 | –

Structure (SMILES) | IC50 (recombinant human FAK1) [nM] | IC50 (Recombinant Src enzyme) [nM] | EC50 [1] [µM] | IC50 (AURKB (Aurora B) enzyme) [nM]
COc1cc(N2CCC(O)CC2)ccc1Nc1cc2c(ccn2S(=O)(=O)c2cccc3cccnc23)cn1 [Example 400] | < 20 | > 1000 | < 0.02 | –
N#Cc1ccccc1S(=O)(=O)n1ncc2cnc(Nc3ccc(N4CCN(CCO)CC4)cc3)cc21 [Example 419] | – | > 1000 | > 1 | –
COCCN1CCN(c2ccc(Nc3cc4c(ccn4S(=O)(=O)c4cccc5cccnc45)cn3)c(OC)c2)CC1 [Example 444] | < 20 | > 1000 | < 0.02 | –
COc1cc(N2CCN(CCOC(C)=O)CC2)ccc1Nc1cc2c(ccn2S(=O)(=O)c2cccc3cccnc23)cn1 [Example 451] | < 20 | > 1000 | < 0.02 | –
CN(c1ncccc1CN1c2nc(Nc3ccc(N4CCNCC4)cc3)ncc2C(C)(C)C1O)S(C)(=O)=O (stereo not shown) [Example 455] | – | > 1000 | > 1 | –
C[C@@H]1CNCCN1c1ccc(Nc2cc3c(ccn3S(=O)(=O)c3ccccc3C#N)cn2)cc1 [Example 479] | – | – | > 1 | < 20
COc1cc(C(=O)N2CCOCC2)c(F)cc1Nc1ncc2ccn(Cc3ccccc3N(C)S(C)(=O)=O)c2n1 [Example 512] | – | > 1000 | > 1 | –
N#Cc1ccccc1S(=O)(=O)n1ccc2cnc(Nc3ccc4c(c3)CC(=O)N4)cc21 [Example 514] | < 20 | > 1000 | > 1 | –
CS(=O)(=O)Nc1ccccc1Cn1ccc2cnc(Nc3ccc(N4CCNCC4)cc3)nc21 [Example 519] | – | < 20 | > 1 | –
CC1(C)CN(c2ccccn2)c2nc(Nc3ccc(N4CCNCC4)cc3)ncc21 [Example 534] | – | – | > 1 | > 1000
CN(c1ccccc1Cn1ccc2cnc(Nc3ccc(N4CCNCC4=O)cc3)nc21)S(C)(=O)=O [Example 550] | < 20 | – | > 1 | < 20
CN(c1ccccc1Cn1ccc2cnc(Nc3ccc(-n4ccccc4=O)cc3)nc21)S(C)(=O)=O [Example 576] | – | > 1000 | > 1 | –
CN(c1ncccc1Cn1ccc2cnc(Nc3ccc4c(c3)CC(=O)N4CCO)nc21)S(C)(=O)=O [Example 615] | – | – | > 1 | < 20
CN(C)C1CN(c2ccc(Nc3cc4c(ccn4S(=O)(=O)c4ccccc4C#N)cn3)cc2)C1 [Example 623] | – | > 1000 | > 1 | –
CC1(C)CN(S(=O)(=O)c2cccc3cccnc23)c2nc(Nc3ccc(N4CCN(CC(=O)O)CC4)cc3)ncc21 [Example 699] | – | > 1000 | > 1 | –
COc1cccc(N(C)S(C)(=O)=O)c1Cn1ccc2cnc(Nc3ccc(N4CCN[C@@H](C)C4)cc3)nc21 [Example 701] | – | > 1000 | > 1 | –
COc1ccc(N(C)S(C)(=O)=O)c(Cn2ccc3cnc(Nc4ccc(N5CCC(N(C)C)CC5)cc4)nc32)c1 [Example 706] | < 20 | – | < 0.02 | –
CNC1CCN(c2ccc(Nc3ncc4c(n3)N(S(=O)(=O)c3cccc5ccccc35)CC4(C)C)cc2)CC1 [Example 707] | – | > 1000 | > 1 | –
CN(C)C1CCN(c2ccc(Nc3ncc4c(n3)N(S(=O)(=O)c3cccc5ccccc35)CC4(C)C)cc2)CC1 [Example 755] | – | > 1000 | > 1 | –
